Results from PubChem BioAssay (NCI).
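Assay format: 96-well plates, 48-hour exposure. The concentration for 50% growth inhibition is given as GI50. TGI is the concentration that stops growth completely.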

Assays:
Experiment in all cases: NCI-60 cell line screen, 48 h
DU-145 prostate = test system: DU-145 prostate
HCC-2998 colon = test system: HCC-2998 colon
HS 578T breast = test system: HS 578T breast
MDA-MB-231 breast = test system: MDA-MB-231 breast
MOLT-4 leukemia = test system: MOLT-4 leukemia
NCI-H23 lung = test system: NCI-H23 lung
NCI/ADR-RES ovarian = test system: NCI/ADR-RES ovarian
PC-3 prostate = test system: PC-3 prostate
RPMI-8226 leukemia = test system: RPMI-8226 leukemia
SK-OV-3 ovarian = test system: SK-OV-3 ovarian

| Structure (SMILES) | GI50 (DU-145 prostate) | TGI (DU-145 prostate) | GI50 (HCC-2998 colon) | TGI (HCC-2998 colon) | GI50 (HS 578T breast) | TGI (HS 578T breast) | GI50 (MDA-MB-231 breast) | TGI (MDA-MB-231 breast) | GI50 (MOLT-4 leukemia) | TGI (MOLT-4 leukemia) | GI50 (NCI-H23 lung) | TGI (NCI-H23 lung) | GI50 (NCI/ADR-RES ovarian) | TGI (NCI/ADR-RES ovarian) | GI50 (PC-3 prostate) | TGI (PC-3 prostate) | GI50 (RPMI-8226 leukemia) | TGI (RPMI-8226 leukemia) | GI50 (SK-OV-3 ovarian) | TGI (SK-OV-3 ovarian) |
| --- | --- | --- | --- | --- | --- | --- | --- | --- | --- | --- | --- | --- | --- | --- | --- | --- | --- | --- | --- | --- |
| NC(=O)c1ncn(C2OC(CO)C(O)C2O)n1 (stereo not given) | 39.6 µM | > 100 µM | > 100 µM | > 100 µM | > 100 µM | > 100 µM | > 100 µM | > 100 µM | 52.9 µM | > 100 µM | > 100 µM | > 100 µM | 54.6 µM | > 100 µM | 59.6 µM | > 100 µM | 80.5 µM | > 100 µM | > 100 µM | > 100 µM |
| O=C(c1ccc(F)c(F)c1Nc1ccc(I)cc1F)N1CC(O)([C@H]2CCCCN2)C1 | 9.76 µM | 22.3 µM | 0.223 µM | 2.62 µM | 9.74 µM | 33.7 µM | 0.579 µM | 5.26 µM | 8.46 µM | 23.3 µM | 1.09 µM | 13.1 µM | 8.74 µM | 23 µM | 9.68 µM | 22.3 µM | 4.03 µM | 20.8 µM | 8.15 µM | 21.1 µM |
| O=C(/C=C/c1ccccc1O)c1ccccc1 | 5.86 µM | 18.7 µM | 17.9 µM | 32.6 µM | 5.67 µM | 30.4 µM | 12.8 µM | 29.9 µM | 2.78 µM | 14.3 µM | 9.63 µM | 23.2 µM | 21.7 µM | > 100 µM | 7.13 µM | 41.6 µM | 2.44 µM | 6.68 µM | 31.5 µM | > 100 µM |
| C=C1C(=O)O[C@H]2[C@H]1CC/C(COC(=O)NCc1c[nH]c3ccc(OC)cc13)=C\CC[C@@]1(C)O[C@@H]21 | 1.35 µM | 2.83 µM | 5.77 µM | 19 µM | 2.75 µM | 16.2 µM | 1.92 µM | 4.3 µM | 1.32 µM | 4.74 µM | 3 µM | 9.33 µM | 7.87 µM | 28.8 µM | 1.07 µM | 2.59 µM | 0.266 µM | 1.52 µM | 12.7 µM | 25.2 µM |
| O=[n+]1cnn([O-])c2ccccc21 | – | > 100 µM | – | > 100 µM | – | > 100 µM | – | 31 µM | – | > 100 µM | – | > 100 µM | – | > 100 µM | – | > 100 µM | – | > 100 µM | – | > 100 µM |
| O=C1OCC2=C1C(c1cccc([N+](=O)[O-])c1)c1cc3c(cc1N2CCO)CCC3 (stereo not given) | 0.19 µM | > 24.5 µM | 0.188 µM | 9.58 µM | 0.18 µM | > 50 µM | 0.271 µM | > 19.3 µM | 0.254 µM | 43.3 µM | 0.335 µM | > 50 µM | 0.146 µM | > 11.3 µM | 0.145 µM | > 50 µM | 0.25 µM | > 39 µM | 0.226 µM | > 50 µM |
